Source: patent publication US20140051679A1, “KINASE INHIBITORS AND METHOD OF TREATING CANCER WITH SAME” (UNIVERISTY HEALTH NETWORKS, priority 2011, published 2014)
Like-named read-outs stand apart in the source and are kept apart here.

Legend:
[1] = test system: PA-1 ovarian cancer cells; experiment: Cell growth inhibition, Sulforhodamine B assay, PA-1; type: cell-based; conditions: 5 days culture, SRB assay, read-out: Cell Line GI50 Range PA-1
[2] = test system: MDA-MB-468 breast cancer cells; experiment: Cell growth inhibition, Sulforhodamine B assay, MDA-MB-468; type: cell-based; conditions: 5 days culture, SRB assay, read-out: Cell Line GI50 Range MDA-MB-468
[3] = test system: HCT116 colon cancer cells; experiment: Cell growth inhibition, Sulforhodamine B assay, HCT116; type: cell-based; conditions: 5 days culture, SRB assay, read-out: Cell Line GI50 Range HCT116
Aurora B = molecular target: T1, Aurora B (Homo sapiens, UniProt Q96GD4); experiment: Aurora B inhibition assay (Z-Lyte); type: biochemical; conditions: 28 nM Aurora B, 128 μM ATP; read-out: IC50 Ranges Aurora B
T1 construct: purchased Invitrogen PV3970
T1 sequence (Q96GD4 whole entry): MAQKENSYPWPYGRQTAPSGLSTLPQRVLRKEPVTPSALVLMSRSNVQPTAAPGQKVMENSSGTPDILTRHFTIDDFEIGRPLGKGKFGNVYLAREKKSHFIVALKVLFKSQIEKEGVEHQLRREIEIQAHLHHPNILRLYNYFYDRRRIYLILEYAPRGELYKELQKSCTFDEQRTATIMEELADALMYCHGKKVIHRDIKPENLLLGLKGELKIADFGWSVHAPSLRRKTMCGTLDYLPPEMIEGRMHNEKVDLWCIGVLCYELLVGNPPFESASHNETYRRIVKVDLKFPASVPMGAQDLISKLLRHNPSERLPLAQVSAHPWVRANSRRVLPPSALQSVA
Description: Aurora B inhibition was determined using the Z-Lyte assay kit from Invitrogen. The assay was performed using the recommended manufacturer's instructions with 128 μM ATP and 28 nM Aurora B (Invitrogen cat #PV3970). The % inhibition values were determined according to the manufacturer's directions and IC50 values were obtained using a non-linear 4 point logistic curve fit (XLfit4, IDBS)

human TTK = molecular target: T2, human TTK (Homo sapiens, UniProt P33981); experiment: TTK inhibition assay (indirect ELISA); type: biochemical; conditions: GST-TTK 0.68 nM, 16 μM ATP; read-out: IC50 Ranges TTK
T2 construct: amino terminal GST fusion of full length human TTK; purchased Invitrogen
T2 sequence (P33981 1-857): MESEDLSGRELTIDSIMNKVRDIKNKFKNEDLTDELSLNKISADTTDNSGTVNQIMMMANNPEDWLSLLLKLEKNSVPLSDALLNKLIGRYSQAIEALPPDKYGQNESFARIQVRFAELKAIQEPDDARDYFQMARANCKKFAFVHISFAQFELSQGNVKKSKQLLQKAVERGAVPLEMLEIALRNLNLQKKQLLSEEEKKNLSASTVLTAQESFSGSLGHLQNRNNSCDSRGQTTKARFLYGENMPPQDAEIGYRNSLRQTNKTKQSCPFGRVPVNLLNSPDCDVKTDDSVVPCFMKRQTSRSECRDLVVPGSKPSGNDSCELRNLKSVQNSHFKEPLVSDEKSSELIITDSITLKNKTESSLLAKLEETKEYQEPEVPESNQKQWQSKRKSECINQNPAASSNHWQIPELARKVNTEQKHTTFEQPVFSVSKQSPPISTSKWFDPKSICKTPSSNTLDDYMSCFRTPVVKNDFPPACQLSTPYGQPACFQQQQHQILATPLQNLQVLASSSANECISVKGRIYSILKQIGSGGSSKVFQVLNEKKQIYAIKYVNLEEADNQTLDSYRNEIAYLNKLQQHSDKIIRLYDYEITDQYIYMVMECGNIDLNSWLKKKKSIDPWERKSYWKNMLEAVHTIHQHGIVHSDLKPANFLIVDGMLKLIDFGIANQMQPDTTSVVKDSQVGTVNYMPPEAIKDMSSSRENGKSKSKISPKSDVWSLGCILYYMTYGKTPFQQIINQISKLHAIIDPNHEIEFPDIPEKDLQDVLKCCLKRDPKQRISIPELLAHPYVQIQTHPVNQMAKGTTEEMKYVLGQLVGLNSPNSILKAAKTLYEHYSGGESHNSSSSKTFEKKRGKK

HT29 colon cancer cells = experiment: Cell growth inhibition, Sulforhodamine B assay, HT29; type: cell-based; conditions: 5 days culture, SRB assay, read-out: Cell Line GI50 Range HT29
human PLK4 = molecular target: T3, human PLK4 (Homo sapiens, UniProt O00444); experiment: PLK4 inhibition assay (indirect ELISA); type: biochemical; conditions: GST-PLK4 4 nM, 15 μM ATP; read-out: IC50 Ranges PLK4
T3 construct: amino terminal GST fusion of residues 1-391 of human PLK4; made in house; host or cells: E. coli
T3 sequence (O00444 1-391): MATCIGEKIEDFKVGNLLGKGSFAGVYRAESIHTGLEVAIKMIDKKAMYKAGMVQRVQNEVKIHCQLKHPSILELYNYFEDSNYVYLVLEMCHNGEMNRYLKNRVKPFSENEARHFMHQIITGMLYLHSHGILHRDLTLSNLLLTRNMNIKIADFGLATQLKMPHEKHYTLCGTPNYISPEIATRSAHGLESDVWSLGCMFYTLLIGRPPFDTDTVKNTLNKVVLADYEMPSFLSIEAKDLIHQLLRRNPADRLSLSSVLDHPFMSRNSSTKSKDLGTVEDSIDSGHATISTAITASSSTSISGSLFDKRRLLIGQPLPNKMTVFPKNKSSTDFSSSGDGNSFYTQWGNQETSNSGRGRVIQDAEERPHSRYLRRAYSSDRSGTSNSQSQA
Summary of the method: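 Compounds were tested either at a single 10 μM dose or across 10-point titrations (typically 0.5 to 0.001 μM), preincubated 15 min with 4 nM GST-PLK4 (human 1-391, dephosphorylated) before 15 μM ATP was added. MBP substrate phosphorylation over 30 min, pH 7.5 HEPES/MgCl2 buffer, read by HRP/TMB ELISA (450 nm). % inhibition vs. high-activity control; IC50 by logistic fit.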

GI50 [1] [µM]	GI50 [2] [µM]	GI50 [3] [µM]	IC50 (Aurora B) [µM]	IC50 (human TTK) [µM]	GI50 (HT29 colon cancer cells) [µM]	IC50 (human PLK4) [µM]	GI50 ([1]; 120 h) [µM]	GI50 ([2]; Homo sapiens, 120 h) [µM]	GI50 ([3]; Homo sapiens, HCT-116, 120 h) [µM]	GI50 (HT29 colon cancer cells; Homo sapiens, HT-29, 120 h) [µM]	SMILES
≤ 5	≤ 5	≤ 5	≤ 5	≤ 5	≤ 5	≤ 5					O=C(Nc1ccc2[nH]nc(-c3ccc(NC4CCC(O)CC4)cc3)c2c1)C(c1ccsc1)N1CCCC1 (stereo not drawn) [Example A105, rel-N-(3-(4-(((1r,4r)-4-hydroxycyclohexyl)amino)phenyl)-1H-indazol-5-yl)-2-(pyrrolidin-1-yl)-2-(thiophen-3-yl)acetamide]
			≤ 5	≤ 5		≤ 5	≤ 5	≤ 5	≤ 5	≤ 5	O=C(Nc1ccc2[nH]nc(-c3ccc(N4CCC(O)CC4)cc3)c2c1)C(c1cccs1)N1CCCC1 (centres unmarked) [Example A88, N-(3-(4-(4-hydroxypiperidin-1-yl)phenyl)-1H-indazol-5-yl)-2-(pyrrolidin-1-yl)-2-(thiophen-2-yl)acetamide]
			≤ 5	≤ 5		≤ 5	≤ 5	≤ 5	≤ 5	≤ 5	O=C(Nc1ccc2[nH]nc(-c3ccc(N4CC(O)C4)cc3)c2c1)C(c1ccsc1)N1CCCC1 (centres unmarked) [Example A120, N-(3-(4-(3-Hydroxyazetidin-1-yl)phenyl)-1H-indazol-5-yl)-2-(pyrrolidin-1-yl)-2-(thiophen-3-yl)acetamide]
			≤ 5	≤ 5		≤ 5	≤ 5	≤ 5	≤ 5	≤ 5	C[C@@H]1CCCN1[C@@H](C(=O)Nc1ccc2[nH]nc(-c3ccc(N4CCOCC4)cc3)c2c1)c1ccsc1 [Example A97, (R)-2-((R)-2-methylpyrrolidin-1-yl)-N-(3-(4-morpholinophenyl)-1H-indazol-5-yl)-2-(thiophen-3-yl)acetamide]
			≤ 5	≤ 5		≤ 5	≤ 5	≤ 5	≤ 5	≤ 5	O=C(Nc1ccc2[nH]nc(-c3ccc(N4CCC(CO)CC4)cc3)c2c1)C(c1ccsc1)N1CCCC1 (centres unmarked) [Example A95, N-(3-(4-(4-(hydroxymethyl)piperidin-1-yl)phenyl)-1H-indazol-5-yl)-2-(pyrrolidin-1-yl)-2-(thiophen-3-yl)acetamide]
			≤ 5	≤ 5		≤ 5	≤ 5	≤ 5	≤ 5	≤ 5	O=C(NC(c1ccccc1)C1CC1)c1ccc2[nH]nc(-c3ccc(N[C@H]4CC[C@H](O)CC4)cc3)c2c1 (single isomer, unassigned) [Example A106, rel-N-(cyclopropyl(phenyl)methyl)-3-(4-(((1r,4r)-4-hydroxycyclohexyl)amino)phenyl)-1H-indazole-5-carboxamide]
			≤ 5	≤ 5		≤ 5	≤ 5	≤ 5	≤ 5	≤ 5	CC(C)(O)C1CCN(c2ccc(-c3n[nH]c4ccc(NC(=O)C(c5ccsc5)N5CCCC5)cc34)cc2)CC1 (centres unmarked) [Example A111, N-(3-(4-(4-(2-hydroxypropan-2-yl)piperidin-1-yl)phenyl)-1H-indazol-5-yl)-2-(pyrrolidin-1-yl)-2-(thiophen-3-yl)acetamide]
			≤ 5	≤ 5		≤ 5	≤ 5	≤ 5	≤ 5	≤ 5	O=C(Nc1ccc2[nH]nc(-c3ccc(N4CCOCC4)cc3)c2c1)C(c1cccs1)N1CCCC1 (centres unmarked) [Example A82, N-(3-(4-morpholinophenyl)-1H-indazol-5-yl)-2-(pyrrolidin-1-yl)-2-(thiophen-2-yl)acetamide]
